Where two headings read alike, the source gives them in different places.
What was measured:
patients with HD [1] = tested on: patients with HD
Text: There are six basic ADLs: eating, bathing, dressing, toileting, transferring (functional mobility) and continence. ADL is scored as follows: a patient requiring total care=0, a patient able to carry out gross tasks only=1, a patient having minimal impairment=2, a patient with no impairment (normal)=3.
The TFC scale of the UHDRS is a standardized scale used to assess 5 functional domains associated with disability shown below (occupation, finances, domestic chores (e.g. laundry, washing dishes), activities of daily living, and care level). The TFC score has a range of 0-13 and is a well-established endpoint for trials aiming disease progression. […] The TFC score is accepted by regulators and often considered the most widely accepted tool for disease procession in HD patients. Additionally, TFC is considered the gold standard for measuring HD rate of functional decline. […] The floor and ceiling effects make TFC scores more sensitive to change in early stage HD than in late stage HD.
Activities of Daily Living (ADL): 0=total care, 1=gross tasks only, 2=minimal impairment, 3=normal.

patients with HD [2] = conditions: Week 26
Description: The HD-QoL is a standardized instrument for measuring health-related quality of life. […] It is a validated disease-specific measure designed for HD, and can provide a summary score of overall health-related quality of life, as well as scores on several discrete scales. […] HD-QoL can be used across the full spectrum of HD.
The change from baseline in HD-QoL and in EQSD-5L was analyzed using an Analysis of Covariance (ANCOVA) Model. The model includes the following fixed effects: treatment, center, neuroleptic use or no use, and baseline HD-QoL or EQSD-5L score. The last observation carried forward (LOCF) was applied for these endpoints for early terminated subjects.

SMILES: CCCN1CCC(c2cccc(S(C)(=O)=O)c2)CC1 [pridopidine, 4-[3-(methylsulfonyl)phenyl]-1-propyl-piperidine]
- Change from baseline in UHDRS TFC ADL, Δ to Placebo (patients with HD [1]; 45 mg bid, Week 26, ALL): 0.12
- UHDRS TFC ADL, change from baseline, Δ to placebo (patients with HD [1]; 45 mg bid, Week 26, BL TFC<7, p value 0.3596): −0.19
- UHDRS TFC ADL, change from baseline, Δ to placebo (patients with HD [1]; 45 mg bid, Week 26, BL TFC≥7, p value 0.0176): 0.24
- Change from baseline in UHDRS TFC ADL, Δ to Placebo (patients with HD [1]; 45 mg bid, Week 26, Stage 1 BL TFC 11-13): 0.65
- Change from baseline in UHDRS TFC ADL, Δ to Placebo (patients with HD [1]; 45 mg bid, Week 52, ALL): 0.14
- UHDRS TFC ADL, change from baseline, Δ to placebo (patients with HD [1]; 45 mg bid, Week 52, BL TFC<7, p value 0.178): −0.33
- UHDRS TFC ADL, change from baseline, Wk 52 Δ to placebo (patients with HD [1]; 45 mg bid, Week 52, BL TFC≥7, p value 0.0019): 0.35
- Change from baseline in UHDRS TFC ADL, Δ to Placebo (patients with HD [1]; 45 mg bid, Week 52, Stage 1 BL TFC 11-13): 0.62
- Change from baseline in UHDRS TFC ADL, Δ to Placebo (patients with HD [1]; 45 mg bid, Week 52, Stage 2 BL TFC 7-10): 0.27
- Change from baseline in UHDRS TFC ADL, Δ to Placebo (patients with HD [1]; 67.5 mg bid, Week 26, ALL): 0.09
- UHDRS TFC ADL, change from baseline, Δ to placebo (patients with HD [1]; 67.5 mg bid, Week 26, BL TFC<7, p value 0.8518): −0.04
- UHDRS TFC ADL, change from baseline, Δ to placebo (patients with HD [1]; 67.5 mg bid, Week 26, BL TFC≥7, p value 0.1132): 0.16
- Change from baseline in UHDRS TFC ADL, Δ to Placebo (patients with HD [1]; 67.5 mg bid, Week 26, Stage 1 BL TFC 11-13): 0.34
- Change from baseline in UHDRS TFC ADL, Δ to Placebo (patients with HD [1]; 67.5 mg bid, Week 52, ALL): 0.03
- UHDRS TFC ADL, change from baseline, Δ to placebo (patients with HD [1]; 67.5 mg bid, Week 52, BL TFC<7, p value 0.0671): −0.4
- UHDRS TFC ADL, change from baseline, Wk 52 Δ to placebo (patients with HD [1]; 67.5 mg bid, Week 52, BL TFC≥7, p value 0.0598): 0.22
- Change from baseline in UHDRS TFC ADL, Δ to Placebo (patients with HD [1]; 67.5 mg bid, Week 52, Stage 1 BL TFC 11-13): 0.21
- Change from baseline in UHDRS TFC ADL, Δ to Placebo (patients with HD [1]; 67.5 mg bid, Week 52, Stage 2 BL TFC 7-10): 0.31
- Change from baseline in UHDRS TFC ADL, Δ to Placebo (patients with HD [1]; 90 mg bid, Week 26, ALL): 0.14
- UHDRS TFC ADL, change from baseline, Δ to placebo (patients with HD [1]; 90 mg bid, Week 26, BL TFC<7, p value 0.3507): 0.18
- UHDRS TFC ADL, change from baseline, Δ to placebo (patients with HD [1]; 90 mg bid, Week 26, BL TFC≥7, p value 0.0526): 0.19
- Change from baseline in UHDRS TFC ADL, Δ to Placebo (patients with HD [1]; 90 mg bid, Week 26, Stage 1 BL TFC 11-13): 0.58
- Change from baseline in UHDRS TFC ADL, Δ to Placebo (patients with HD [1]; 90 mg bid, Week 52, ALL): −0.01
- UHDRS TFC ADL, change from baseline, Δ to placebo (patients with HD [1]; 90 mg bid, Week 52, BL TFC<7, p value 0.073): −0.39
- UHDRS TFC ADL, change from baseline, Wk 52 Δ to placebo (patients with HD [1]; 90 mg bid, Week 52, BL TFC≥7, p value 0.0545): 0.21
- Change from baseline in UHDRS TFC ADL, Δ to Placebo (patients with HD [1]; 90 mg bid, Week 52, Stage 1 BL TFC 11-13): 0.42
- Change from baseline in UHDRS TFC ADL, Δ to Placebo (patients with HD [1]; 90 mg bid, Week 52, Stage 2 BL TFC 7-10): 0.16
- Change from baseline in UHDRS TFC ADL, Δ to Placebo (patients with HD [1]; 112.5 mg bid, Week 26, ALL): 0.17
- UHDRS TFC ADL, change from baseline, Δ to placebo (patients with HD [1]; 112.5 mg bid, Week 26, BL TFC<7, p value 0.8438): −0.04
- UHDRS TFC ADL, change from baseline, Δ to placebo (patients with HD [1]; 112.5 mg bid, Week 26, BL TFC≥7, p value 0.0076): 0.27
- Change from baseline in UHDRS TFC ADL, Δ to Placebo (patients with HD [1]; 112.5 mg bid, Week 26, Stage 1 BL TFC 11-13): 0.7
- Change from baseline in UHDRS TFC ADL, Δ to Placebo (patients with HD [1]; 112.5 mg bid, Week 52, ALL): 0.03
- UHDRS TFC ADL, change from baseline, Δ to placebo (patients with HD [1]; 112.5 mg bid, Week 52, BL TFC<7, p value 0.1393): −0.32
- UHDRS TFC ADL, change from baseline, Wk 52 Δ to placebo (patients with HD [1]; 112.5 mg bid, Week 52, BL TFC≥7, p value 0.0493): 0.23
- Change from baseline in UHDRS TFC ADL, Δ to Placebo (patients with HD [1]; 112.5 mg bid, Week 52, Stage 1 BL TFC 11-13): 0.46
- Change from baseline in UHDRS TFC ADL, Δ to Placebo (patients with HD [1]; 112.5 mg bid, Week 52, Stage 2 BL TFC 7-10): 0.15
- Change from baseline in HD-QoL Participant Total Score, Δ to placebo (patients with HD [2]; 45 mg bid, ALL): 1.91
- HD-QoL Participant Total Score, change from baseline, Δ to placebo (patients with HD [2]; 45 mg bid, BL TFC<7, p value 0.6958): 4.87
- HD-QoL Participant Total Score, change from baseline, Δ to placebo (patients with HD [2]; 45 mg bid, BL TFC≥7, p value 0.9144): 0.51
- Change from baseline in HD-QoL Participant Total Score, Δ to placebo (patients with HD [2]; 45 mg bid, Stage 2 BL TFC 7-10): 3.22
- Change from baseline in HD-QoL Participant Total Score, Δ to placebo (patients with HD [2]; 67.5 mg bid, ALL): 8.7
- HD-QoL Participant Total Score, change from baseline, Δ to placebo (patients with HD [2]; 67.5 mg bid, BL TFC<7, p value 0.9304): 1
- HD-QoL Participant Total Score, change from baseline, Δ to placebo (patients with HD [2]; 67.5 mg bid, BL TFC≥7, p value 0.0284): 10.63
- Change from baseline in HD-QoL Participant Total Score, Δ to placebo (patients with HD [2]; 67.5 mg bid, Stage 2 BL TFC 7-10): 16.33
- Change from baseline in HD-QoL Participant Total Score, Δ to placebo (patients with HD [2]; 90 mg bid, ALL): 6.95
- HD-QoL Participant Total Score, change from baseline, Δ to placebo (patients with HD [2]; 90 mg bid, BL TFC<7, p value 0.817): 2.61
- HD-QoL Participant Total Score, change from baseline, Δ to placebo (patients with HD [2]; 90 mg bid, BL TFC≥7, p value 0.2834): 5.17
